Our source for the TGI and GI50 values is PubChem BioAssay (NCI).

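Where inhibition never reached the appropriate level, the endpoint shown equals the highest concentration tested. Otherwise, values were interpolated linearly from a five-concentration, 48-hour dose response in 96-well plates. GI50 = concentration required for 50% inhibition of growth. TGI is the concentration that stops growth completely.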

Some test systems named below: OVCAR-8 ovarian; HL-60(TB) leukemia; IGROV1 ovarian; NCI-H522 lung; LOX IMVI melanoma; SW-620 colon; MDA-N; SNB-19 CNS; RXF 393 renal; RPMI-8226 leukemia.
Common to all, as to assay: NCI anticancer screen, dose series, 48 h

With `O=C(O)c1cccc2cccc(-c3cccc4cccc(C(=O)O)c34)c12`, the TGI in the assay on OVCAR-8 ovarian, in the assay on HL-60(TB) leukemia, in the assay with IGROV1 ovarian, in the assay on NCI-H522 lung, in the assay on LOX IMVI melanoma and with SW-620 colon was above 100 µM each time. For the same molecule, the TGI with MDA-N, in the assay with SNB-19 CNS and in the assay on RXF 393 renal was above 100 µM each time.
Consider `COc1ccc(Nc2nc(N)c(C(=O)c3c[nH]c4ccccc34)s2)cc1`, for which the TGI is above 100 µM in the assay on OVCAR-8 ovarian; 14 µM in the assay with HL-60(TB) leukemia; above 100 µM with IGROV1 ovarian; above 100 µM in the assay with LOX IMVI melanoma; above 100 µM in the assay with SW-620 colon; 0.878 µM in the assay on MDA-N. Moreover, the TGI in the assay on SNB-19 CNS was above 100 µM; with RXF 393 renal, 11.4 µM.
As for `CCc1c(CNc2ccc(C(=O)NC(CC(=O)O)C(=O)O)cc2)ccc2nc(N)nc(N)c12` (stereo not given), the TGI in the assay on OVCAR-8 ovarian, in the assay on IGROV1 ovarian, in the assay with NCI-H522 lung, in the assay with RPMI-8226 leukemia, with LOX IMVI melanoma and in the assay on SW-620 colon was above 1000 µM throughout. The TGI in the assay on MDA-N, in the assay on SNB-19 CNS and with RXF 393 renal was above 1000 µM each time. Also, the GI50 in the assay with NCI-H522 lung was 1.09 µM; in the assay with RPMI-8226 leukemia it was 1.28 µM; in the assay with SNB-19 CNS, 0.188 µM; with RXF 393 renal, above 1000 µM.
`C[C@]12CCC(=O)[C@@H](CCC3=CC(=O)C=CC3=O)[C@@H]1CCC2=O`: the TGI in the assay on OVCAR-8 ovarian is above 69.5 µM; with HL-60(TB) leukemia, 39.1 µM; in the assay on NCI-H522 lung, 5.64 µM; with RPMI-8226 leukemia, above 100 µM; in the assay on LOX IMVI melanoma, 39.3 µM; with SW-620 colon it was above 58.7 µM. The TGI in the assay with MDA-N is above 52.8 µM; in the assay with SNB-19 CNS, above 100 µM; in the assay with RXF 393 renal it was 5.43 µM.
As to `CCCCC1=C(C(=O)N2CCOCC2)C2(OCCO2)C1=O`, the TGI in the assay with OVCAR-8 ovarian is 58.3 µM; in the assay with HL-60(TB) leukemia, 61.2 µM; in the assay on IGROV1 ovarian, 37 µM; with NCI-H522 lung it was 32.6 µM; in the assay with LOX IMVI melanoma, 25.4 µM; with SW-620 colon, 81.9 µM. The TGI with MDA-N amounted to 71.2 µM; with SNB-19 CNS, 43.2 µM; with RXF 393 renal, 50.3 µM.
For `O=C(CCc1cc(O)cc(O)c1)NCCCNC(=O)CCc1cc(O)cc(O)c1`, the TGI in the assay on OVCAR-8 ovarian, in the assay on IGROV1 ovarian, in the assay on NCI-H522 lung, with RPMI-8226 leukemia, in the assay on LOX IMVI melanoma and in the assay with SW-620 colon was above 100 µM each time. Moreover, the TGI in the assay on MDA-N, in the assay with SNB-19 CNS and in the assay on RXF 393 renal was above 100 µM in each case.
For `C=C1OC(c2ccccc2NC)=NC12CCCCC2`, the TGI with OVCAR-8 ovarian, with HL-60(TB) leukemia, in the assay on IGROV1 ovarian, in the assay with NCI-H522 lung, in the assay on LOX IMVI melanoma and in the assay on SW-620 colon was above 100 µM in each case. In addition, the TGI in the assay with MDA-N, with SNB-19 CNS and in the assay with RXF 393 renal was above 100 µM throughout.
Consider `CC(=O)OCC1OC(n2c(-c3ccccc3)c(N=Nc3ccccc3)c(C)c(C#N)c2=S)C(OC(C)=O)C(OC(C)=O)C1OC(C)=O` (stereo not given), for which the TGI with HL-60(TB) leukemia, with IGROV1 ovarian, in the assay on RPMI-8226 leukemia, with LOX IMVI melanoma, in the assay on SW-620 colon and in the assay on MDA-N was above 100 µM throughout. Further, the TGI with SNB-19 CNS and in the assay on RXF 393 renal was above 100 µM throughout.
`OCCOCn1nncc1Cn1ncc2c(SCc3ccccc3)ncnc21`: the TGI with OVCAR-8 ovarian was above 100 µM; in the assay with HL-60(TB) leukemia it was 53.5 µM; with IGROV1 ovarian, above 100 µM; in the assay on NCI-H522 lung it was above 100 µM; in the assay on LOX IMVI melanoma it was above 100 µM; in the assay on SW-620 colon, above 100 µM. Further, the TGI with MDA-N, in the assay with SNB-19 CNS and in the assay on RXF 393 renal was above 100 µM each time.
Regarding `C1=C2C3=[N+](CCCCC3)CC2Cc2ccsc21` (stereo not given), the TGI with OVCAR-8 ovarian, in the assay with HL-60(TB) leukemia, with IGROV1 ovarian, with NCI-H522 lung, with LOX IMVI melanoma and in the assay on SW-620 colon was above 100 µM throughout. Further, the TGI with MDA-N, in the assay with SNB-19 CNS and in the assay on RXF 393 renal was above 100 µM throughout.
As to `O=C1C=CC=C/C1=C1\N=C(c2ccccc2OCC(=O)c2ccccc2)SS1`, the TGI in the assay with OVCAR-8 ovarian, in the assay on HL-60(TB) leukemia, in the assay with IGROV1 ovarian, with RPMI-8226 leukemia, in the assay on LOX IMVI melanoma and in the assay with SW-620 colon was above 100 µM in each case. For the same molecule, the TGI with MDA-N, in the assay on SNB-19 CNS and in the assay with RXF 393 renal was above 100 µM each time.
On to `O=C(OCCN=c1c2ccccc2ccc2ccccc12)c1ccccc1`, for which the TGI in the assay with OVCAR-8 ovarian, in the assay on HL-60(TB) leukemia, in the assay on IGROV1 ovarian, with RPMI-8226 leukemia, with LOX IMVI melanoma and in the assay on SW-620 colon was above 100 µM throughout. The TGI in the assay on MDA-N, with SNB-19 CNS and in the assay on RXF 393 renal was above 100 µM each time.
